In the supplement of paper PMC6045584:
± gives the standard deviation of the averaged measurements.

Experiments:
[1] = compound: C=CCNC1=C2C[C@@H](C)C[C@H](OC)[C@H](O)[C@@H](C)/C=C(\C)[C@H](OC(N)=O)[C@@H](OC)/C=C\C=C(/C)C(=O)NC(=CC1=O)C2=O [17-AAG]; assay: surviving fraction relative to DMSO-only wells; higher = less growth inhibition; details: exposure time: 5 days
Summary of the method: (§1)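 Continuous five-day exposure to inhibitors at 0.5, 1, 5, 10, 50, 100, 500 and 1000 nM started 24 hours after log-phase tumour cell lines were seeded at 250–500 cells per well in 384-well plates. Luminescence was read after 10 minutes at room temperature. Viability is given as surviving fraction, meaning CellTiter-Glo luminescence normalised to the median of DMSO-only wells.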

[2] = compound: CN(C)CC[C@H](CSc1ccccc1)Nc1ccc(S(=O)(=O)NC(=O)c2ccc(N3CCN(Cc4ccccc4-c4ccc(Cl)cc4)CC3)cc2)cc1[N+](=O)[O-] [ABT-737]; assay: as above; details: exposure time: 5 days
Summary of the method: as §1

Test System	surviving fraction ([1]; 0.5 nM)	surviving fraction ([1]; 1 nM)	surviving fraction ([1]; 5 nM)	surviving fraction ([1]; 10 nM)	surviving fraction ([1]; 50 nM)	surviving fraction ([1]; 100 nM)	surviving fraction ([1]; 500 nM)	surviving fraction ([1]; 1000 nM)	surviving fraction ([2]; 0.5 nM)	surviving fraction ([2]; 1 nM)	surviving fraction ([2]; 5 nM)	surviving fraction ([2]; 10 nM)	surviving fraction ([2]; 50 nM)	surviving fraction ([2]; 100 nM)	surviving fraction ([2]; 500 nM)	surviving fraction ([2]; 1000 nM)
HCC1395 BREAST	0.823 ± 0.02	0.862 ± 0.035	0.957 ± 0.12	0.93 ± 0.067	1.21 ± 0.12	1.13 ± 0.18	0.899 ± 0.15	0.803 ± 0.1	1.15 ± 0.075	1.14 ± 0.053	1.27 ± 0.047	1.25 ± 0.061	1.19 ± 0.024	1.32 ± 0.033	1.12 ± 0.069	1.1 ± 0.065
HCC1806 BREAST	0.78 ± 0.076	0.783 ± 0.065	0.571 ± 0.12	0.123 ± 0.056	0.0273 ± 0.0015	0.0247 ± 0.0015	0.023 ± 0.001	0.0243 ± 0.0015	1.06 ± 0.057	1.02 ± 0.15	1.16 ± 0.081	1.207 ± 0.008	1.17 ± 0.11	1.16 ± 0.067	1.05 ± 0.074	1.13 ± 0.04
HCC1954 BREAST	0.387 ± 0.00071	0.292 ± 0.071	0.195 ± 0.011	0.131 ± 0.03	0.0668 ± 0.012	0.0498 ± 0.0053	0.0425 ± 0.0042	0.045 ± 0.0064	1.09 ± 0.11	1.02 ± 0.092	1.21 ± 0.047	1.25 ± 0.033	0.878 ± 0.17	0.917 ± 0.26	0.674 ± 0.15	0.564 ± 0.092
HCT15 LARGE INTESTINE	0.858 ± 0.04	0.852 ± 0.011	0.864 ± 0.029	0.792 ± 0.078	0.479 ± 0.0076	0.264 ± 0.0079	0.072 ± 0.0027	0.0573 ± 0.0025	1.02 ± 0.1	1.02 ± 0.14	1.02 ± 0.12	1.02 ± 0.17	1.1 ± 0.073	1.08 ± 0.094	1.03 ± 0.11	1.09 ± 0.029
HELA CERVIX	0.944 ± 0.039	0.921 ± 0.037	0.924 ± 0.045	0.906 ± 0.043	0.68 ± 0.092	0.482 ± 0.038	0.219 ± 0.015	0.0948 ± 0.0088	1.05 ± 0.04	1.05 ± 0.04	1.06 ± 0.017	1.06 ± 0.047	1.14 ± 0.085	1.11 ± 0.084	1.2 ± 0.13	1.16 ± 0.07
HOS BONE	0.924 ± 0.029	0.932 ± 0.037	0.934 ± 0.027	0.93 ± 0.017	0.914 ± 0.024	0.442 ± 0.11	0.0503 ± 0.0011	0.0427 ± 0.0032	1.01 ± 0.028	1.03 ± 0.013	1.03 ± 0.026	1.03 ± 0.02	1.06 ± 0.016	1.084 ± 0.0046	1.08 ± 0.046	1.03 ± 0.021
HOSMNG BONE	0.981 ± 0.039	0.977 ± 0.072	0.972 ± 0.051	0.978 ± 0.068	1.08 ± 0.028	0.506 ± 0.014	0.14 ± 0.014	0.11 ± 0.0031	0.879 ± 0.057	0.942 ± 0.099	0.888 ± 0.06	0.893 ± 0.073	0.928 ± 0.072	1 ± 0.075	0.921 ± 0.12	0.944 ± 0.11
HSSYII SYNOVIAL	0.869 ± 0.049	0.812 ± 0.035	0.888 ± 0.045	0.868 ± 0.022	0.764 ± 0.039	0.519 ± 0.017	0.122 ± 0.0035	0.114 ± 0.0093	1.03 ± 0.064	0.999 ± 0.044	0.99 ± 0.043	0.972 ± 0.045	1.12 ± 0.054	0.859 ± 0.041	0.637 ± 0.017	0.54 ± 0.079
HT1080 SOFT TISSUE	0.969 ± 0.031	1 ± 0.061	1.08 ± 0.015	1.048 ± 0.01	0.389 ± 0.017	0.204 ± 0.028	0.148 ± 0.0085	0.146 ± 0.0015	1.06 ± 0.045	1.06 ± 0.018	1.05 ± 0.022	1.07 ± 0.045	1 ± 0.028	1.05 ± 0.029	1.01 ± 0.032	1.02 ± 0.028
HU09 BONE	0.918 ± 0.045	0.935 ± 0.14	0.542 ± 0.025	0.131 ± 0.038	0.0283 ± 0.00058	0.0237 ± 0.0031	0.0233 ± 0.0029	0.0233 ± 0.0038	1.08 ± 0.08	1.07 ± 0.12	1.1 ± 0.0064	1.06 ± 0.065	0.988 ± 0.063	0.912 ± 0.08	0.697 ± 0.031	0.617 ± 0.027
HUO3N1 BONE	0.881 ± 0.025	0.888 ± 0.042	0.97 ± 0.022	0.872 ± 0.046	0.591 ± 0.046	0.443 ± 0.025	0.359 ± 0.026	0.316 ± 0.036	1.03 ± 0.027	1.07 ± 0.012	1.1 ± 0.041	1.1 ± 0.035	1.09 ± 0.074	1.05 ± 0.039	0.994 ± 0.064	0.943 ± 0.02
JIMT1 BREAST	0.833 ± 0.034	0.823 ± 0.062	0.84 ± 0.046	0.754 ± 0.1	0.0973 ± 0.016	0.0685 ± 0.0066	0.062 ± 0.0026	0.0647 ± 0.0033	1.02 ± 0.048	1.05 ± 0.016	1.019 ± 0.0045	1.018 ± 0.0065	1.04 ± 0.037	1.07 ± 0.06	1.06 ± 0.054	1.08 ± 0.032
JURKAT HAEMATOPOIETIC AND LYMPHOID TISSUE	1.02 ± 0.014	0.997 ± 0.037	1 ± 0.023	0.998 ± 0.014	0.951 ± 0.032	0.886 ± 0.021	0.132 ± 0.0082	0.0577 ± 0.0015	1.04 ± 0.026	1.04 ± 0.029	1.05 ± 0.024	1.02 ± 0.028	0.949 ± 0.025	0.932 ± 0.035	0.752 ± 0.041	0.549 ± 0.0064
KPD BONE	0.907 ± 0.085	0.894 ± 0.05	0.913 ± 0.01	0.828 ± 0.084	0.246 ± 0.018	0.111 ± 0.011	0.0627 ± 0.0015	0.0607 ± 0.0045	1.06 ± 0.038	1.02 ± 0.049	1.11 ± 0.03	1.13 ± 0.069	1.07 ± 0.017	1.12 ± 0.21	0.839 ± 0.023	0.691 ± 0.042
LM7 BONE	0.755 ± 0.098	0.728 ± 0.03	0.763 ± 0.026	0.722 ± 0.01	0.188 ± 0.0075	0.121 ± 0.0085	0.0937 ± 0.0021	0.0923 ± 0.0068	0.97 ± 0.065	1.03 ± 0.09	1.11 ± 0.04	1.1 ± 0.096	1.08 ± 0.061	1.13 ± 0.057	0.921 ± 0.095	0.905 ± 0.043
LNCAP PROSTATE	1.15 ± 0.1	1.14 ± 0.025	0.769 ± 0.12	0.359 ± 0.028	0.114 ± 0.009	0.0687 ± 0.012	0.0517 ± 0.0021	0.0523 ± 0.0064	0.971 ± 0.034	0.971 ± 0.041	0.932 ± 0.065	0.882 ± 0.025	0.973 ± 0.035	0.932 ± 0.04	0.914 ± 0.05	0.856 ± 0.1
MCF7 BREAST	0.842 ± 0.015	0.817 ± 0.027	0.811 ± 0.021	0.777 ± 0.058	0.429 ± 0.0029	0.329 ± 0.0083	0.271 ± 0.015	0.275 ± 0.012	0.9422 ± 0.0083	0.957 ± 0.048	0.993 ± 0.02	1 ± 0.039	1.02 ± 0.052	1.02 ± 0.044	0.985 ± 0.02	1 ± 0.022
MDAMB134 BREAST	0.609 ± 0.036	0.648 ± 0.053	0.573 ± 0.066	0.667 ± 0.051	0.574 ± 0.018	0.519 ± 0.011	0.524 ± 0.012	0.47 ± 0.018	1.1 ± 0.12	0.848 ± 0.18	0.786 ± 0.071	0.831 ± 0.016	0.908 ± 0.096	0.914 ± 0.063	0.764 ± 0.04	0.471 ± 0.033
MDAMB157 BREAST	0.897 ± 0.082	0.854 ± 0.053	0.848 ± 0.18	0.482 ± 0.098	0.233 ± 0.018	0.214 ± 0.038	0.163 ± 0.024	0.147 ± 0.008	1.02 ± 0.026	0.995 ± 0.13	0.952 ± 0.069	0.964 ± 0.062	1.01 ± 0.032	1.01 ± 0.057	0.938 ± 0.028	0.893 ± 0.059
MDAMB231 BREAST	0.95 ± 0.019	0.943 ± 0.03	0.994 ± 0.033	1.01 ± 0.022	0.534 ± 0.019	0.263 ± 0.0075	0.103 ± 0.0031	0.0973 ± 0.0038	1 ± 0.031	0.99 ± 0.018	1.01 ± 0.014	1.01 ± 0.018	1.02 ± 0.041	1.01 ± 0.03	1 ± 0.018	0.941 ± 0.02
